Where two headings read alike, the source gives them in different places.
Tested on: human RS virus A2 strain
Test: In vitro test for anti-RS virus proliferation inhibitory activity (quantitative RT-PCR of RS virus RNA copy number in infected Vero cells)
Type: cell-based
Settings: 72 h, Vero cells infected with human RS virus A2 strain, 3 days of incubation, read-out: Anti-RS virus Activity
Description: A mixture of Vero cells (3.4×10^5 cells/mL) and human RS virus A2 strain (1.7×10^4 TCID50/mL) (EMEM medium supplemented with 10% FCS) was added to a 96-well plate at 50 μL/well, and the 10% FCS-supplemented EMEM medium adjusted to the desired final concentration of the compounds to be tested was added at 50 μL/well, followed by incubating the plate at 37° C. in the presence of 5% CO2 at 37° C. After 3 days of incubation, the supernatant was removed, the cells were washed with PBS(−), and the cell lysis buffer supplied with the SingleShot (registered trademark) Cell Lysis Kit (Bio-Rad) was added dropwise at 50 μL/well to lysis the cells thereby providing the cell lysate.
Human RS virus RNA copy number in the cell lysate was determined by quantitative RT-PCR using iTaq Universal SYBR Green One-Step Kit (Bio-Rad). Specifically, primers targeting human RS virus N gene (Rameix-Welti et al, Nat Commun5: 5104, 2014. doi: 10.1038/ncomms6104) was used to prepare the reaction solution according to the instructions provided with the kit, and a 96-well PikoReal Real-Time PCR System (TCR0096, Thermo Fisher Scientific) was used to detect PCR reaction and signal assay.
The copy number was calculated by the relative method using the comparative Ct method using compound-free virus-infected cells as controls.

[1] = RS virus RNA copy number by quantitative RT-PCR
[2] = RS virus N gene RNA copy number by quantitative RT-PCR

SMILES	IC50 [1] [µM]	IC50 [2] [µM]
NC(=O)c1ccc2cc(C(=O)N3C[C@H](O)C[C@H]3c3nc(CCCc4ccccc4)no3)ccc2c1 [Compound 4-5]		> 50
CC(C)(C)OC(=O)N1C[C@H](c2ccccc2)C[C@H]1c1nc(Cc2ccccc2)no1 [Compound C1-7-1, Tert-butyl (2S,4S)-2-(3-benzyl-1,2,4-oxadiazol-5-yl)-4-phenylpyrrolidine-1-carboxylate]	< 10	
O=S(=O)(N1CCOCC1)N1C[C@H](c2ccccc2)C[C@H]1c1nc(CCCc2ccccc2)no1 [Compound 7AE, 4-(((2S,4S)-4-phenyl2-(3-(3-phenylpropyl)-1,2,4-oxadiazole-5-yl)pyrrolidin-1-yl)sulfonyl) morpholine]	10 to 50	
CN(C)c1ccc(S(=O)(=O)N2CC3(CC3)C[C@H]2c2nc(CCCc3ccccc3)no2)cc1 [Compound 5AK, (S)-N,N-dimethyl-4-((6-(3-(3-phenylpropyl)-1,2,4-oxadiazole-5-yl)-5-azaspiro[2.4]heptan-5-yl)sulfonyl)aniline]	< 10	
O=S(=O)(N1CCCCC1)N1CC2(CC2)C[C@H]1c1nc(CCCc2ccccc2)no1 [Compound 5AD, (S)-3-(3-phenylpropyl)-5-(5-(piperidin-1-ylsulfonyl)-5-azaspiro[2.4]heptan-6-yl)-1,2,4-oxadiazole]	10 to 50	
CCOC(=O)C1CCN(S(=O)(=O)N2C[C@H](c3ccccc3)C[C@H]2c2nc(CCCc3ccccc3)no2)CC1 [Compound 7AC, ethyl 1-(((2S,4S)-4-phenyl2-(3-(3-phenylpropyl)-1,2,4-oxadiazole-5-yl)pyrrolidin-1-yl)sulfonyl)piperidin-4-carboxylate]	10 to 50	
CC(C)(C)OC(=O)N1CCCC[C@H]1c1nc(CCCc2ccccc2)no1 [Compound 2-1, 3-(3-phenylpropyl)-5-[(2S)-1-tert-butoxycarbonylpiperidin-2-yl]-1,2,4-oxadiazole]		10 to 50
O=S(=O)(N1CCCCC1)N1CC(CC2CCC2)CC1c1nc(CCCc2ccccc2)no1 (stereo not drawn) [Compound 6AD, 5-(4-(cyclobuthylmethyl)-1-(piperidin-1-ylsulfonyl)pyrrolidin-2-yl)-3-(3-phenylpropyl)-1,2,4-oxadiazole]	10 to 50	
COC(=O)N1CCC[C@H]1c1nc(CCCc2ccccc2)no1 [Compound 1K, Methyl (S)-2-(3-(3-phenylpropyl)-1,2,4-oxadiazol-5-yl) pyrrolidine-1-carboxylate]	10 to 50	
[O-][S+](N1CCCC[C@H]1c1nc(CCCc2ccccc2)no1)C12CC3CC(CC(C3)C1)C2 (stereo partly drawn) [2AF′, 5-((2S)-1-((adamantan-1-yl)sulfinyl)piperidin-2-yl)-3-(3-phenylpropyl)-1,2,4-oxadiazole]	10 to 50	
O=S(=O)(C1CCOCC1)N1CC2(CC2)C[C@H]1c1nc(CCCc2ccccc2)no1 [Compound 5AP, (S)-3-(3-phenylpropyl)-5-(5-((tetrahydro-2H-pyran-4-yl)sulfonyl)-5-azaspiro[2.4]heptan-6-yl)-1,2,4-oxadiazole]	10 to 50	
CCOC(=O)C1CCN(S(=O)(=O)N2CC(CC3CCC3)CC2c2nc(CCCc3ccccc3)no2)CC1 (stereo not drawn) [Compound 6AC, ethyl 1-((4-(cyclobuthylmethyl)-2-(3-(3-phenylpropyl)-1,2,4-oxadiazole-5-yl)pyrrolidin-1-yl)sulfonyl)piperidin-4-carboxylate]	10 to 50	
O=S(=O)(c1ccccc1)N1CC2(CC2)C[C@H]1c1nc(CCCc2ccccc2)no1 [Compound 5D, 3-(3-phenylpropyl)-5-{(6S)-5-benzenesulfonyl-5-azaspiro[2.4]hept-6-yl}-1,2,4-oxadiazole]	> 50	
O=C(OC1CCCC1)N1CCC[C@H]1c1nc(CCCc2ccccc2)no1 [Compound 1O, Cyclopentyl (S)-2-(3-(3-phenylpropyl)-1,2,4-oxadiazol-5-yl) pyrrolidine-1-carboxylate]	10 to 50	
CC(C)CS(=O)(=O)N1C[C@H](O)C[C@H]1c1nc(CCCc2ccccc2)no1 [Compound 3A, 3-(3-phenylpropyl)-5-[(2S,4R)-4-hydroxy-1-isobutylsulfonylpyrrolidin-2-yl]-1,2,4-oxadiazole]		> 50
CN(C)c1ccc(S(=O)(=O)N2C[C@H](c3ccccc3)C[C@H]2c2nc(CCCc3ccccc3)no2)cc1 [Compound 7AK, N,N-dimethyl-4-(((2S,4S)-4-phenyl2-(3-(3-phenylpropyl)-1,2,4-oxadiazole-5-yl)pyrrolidin-1-yl)sulfonyl)aniline]	< 10	
CC(C)CS(=O)(=O)N1CC2(CC2)C[C@H]1c1nc(CCCc2ccccc2)no1 [Compound 5A, 3-(3-phenylpropyl)-5-{(6S)-5-isobutylsulfonyl-5-azaspiro[2.4]hept-6-yl}-1,2,4-oxadiazole]	< 10	
O=C(Oc1ccccc1)N1CCC[C@H]1c1nc(CCCc2ccccc2)no1 [Compound 1M, Phenyl (S)-2-(3-(3-phenylpropyl)-1,2,4-oxadiazol-5-yl)pyrrolidine-1-carboxylate]	10 to 50	
CC(C)(C)OC(=O)N1C[C@H](O)C[C@H]1c1nc(CCCc2ccccc2)no1 [Compound 3-1, 3-(3-phenylpropyl)-5-[(2S,4R)-1-tert-butoxycarbonyl-4-hydroxypyrrolidin-2-yl]-1,2,4-oxadiazole]		> 50
Fc1ccc(CN2CCC[C@H]2c2nc(CCCc3ccccc3)no2)cc1 [Compound 1V, (S)-5-(1-(4-fluorobenzyl)pyrrolidin-2-yl)-3-(3-phenylpropyl)-1,2,4-oxadiazole]	< 10	
O=S(=O)(Cc1ccccc1)N1C[C@H](O)C[C@H]1c1nc(CCCc2ccccc2)no1 [Compound 3E, 3-(3-phenylpropyl)-5-[(2S,4R)-1-benzylsulfonyl-4-hydroxypyrrolidin-2-yl]-1,2,4-oxadiazole]		10 to 50
CN(C)c1cccc2c(S(=O)(=O)N3C[C@H](c4ccccc4)C[C@H]3c3nc(CCCc4ccccc4)no3)cccc12 [Compound 7AL, N,N-dimethyl-5-(((2S,4S)-4-phenyl2-(3-(3-phenylpropyl)-1,2,4-oxadiazole-5-yl)pyrrolidin-1-yl)sulfonyl)naphthalen-1-amine]	< 10	
CC(C)(C)OC(=O)N1C[C@H](c2ccccc2)C[C@H]1c1nc(CCc2ccccc2)no1 [Compound C2-7-1, Tert-butyl (2S,4S)-2-(3-phenethyl-1,2,4-oxadiazol-5-yl)-4-phenylpyrrolidine-1-carboxylate]	10 to 50	
CC(C)(C)OC(=O)N1C[C@H](c2ccccc2)C[C@H]1c1nc(CCCc2ccccc2)no1 [Compound 7-1, 3-(3-phenylpropyl)-5-[(2S,4S)-1-tert-butoxycarbonyl-4-phenylpyrrolidin-2-yl]-1,2,4-oxadiazole]	< 10	

Continued, values first:

IC50 [1] [µM]	IC50 [2] [µM]	SMILES
10 to 50		Cc1oc([C@@H]2CCCCN2S(=O)(=O)C2CCCCC2)nc1C(=O)NCc1ccccc1 [Compound 34B, (S)—N-Benzyl-2-(1-(cyclohexylsulfonyl)piperidin-2-yl)-5-methyloxazole-4-carboxamide]
< 10		COc1ccc(S(=O)(=O)N2C[C@H](F)C[C@H]2c2nc(CCCc3ccccc3)no2)cc1 [Compound 8AI, 5-((2S,4R)-4-fluoro-1-((4-methoxyphenyl)sulfonyl)pyrrolidin-2-yl)-3-(3-phenylpropyl)-1,2,4-oxadiazole]
10 to 50		CC(C)(C)OC(=O)N1C[C@H]2CC[C@]1(c1nc(CCc3ccncc3)no1)CC2 [Compound 13-1, Tert-butyl (1s,4s)-1-(3-(2-(pyridin-4-yl)ethyl)-1,2,4-oxadiazol-5-yl)-2-azabicyclo[2.2.2]octane-2-carboxylate]
10 to 50		COC(=O)c1nc([C@@H]2CCCCN2S(=O)(=O)C2CCCCC2)[nH]c1C [Compound 38B, Methyl (S)-2-(1-(cyclohexylsulfonyl)piperidin-2-yl)-5-methyl-1H-Imidazole-4-carboxylate]
10 to 50		CC(C)(C)NC(=O)N1[C@@H]2CC[C@@H](C2)[C@H]1c1nnc(Cc2c[nH]c3ccccc23)[nH]1 [Compound 24H, (1R,3S,4S)-3-(5-((1H-indol-3-yl)methyl)-4H-1,2,4-triazol-3-yl)-N-(tert-butyl)-2-azabicyclo[2.2.1]heptane-2-carboxamide]
10 to 50		COc1ccc(C(=O)NCc2noc([C@@H]3CCCCN3S(=O)(=O)C3CCCCC3)n2)cc1OC [Compound 27B, (S)—N-((5-(1-(cyclohexylsulfonyl)piperidin-2-yl)-1,2,4-oxadiazol-3-yl)methyl)-3,4-dimethoxybenzamide]
> 50		CS(=O)(=O)N1C[C@H](F)C[C@H]1c1nc(CCCc2ccccc2)no1 [Compound 8C, 3-(3-phenylpropyl)-5-[(2S,4R)-1-methanesulfonyl-4-fluoropyrrolidin-2-yl]-1,2,4-oxadiazole]
> 50		CC(C)CS(=O)(=O)N1CCC[C@H]1c1nc(CCc2ccccc2)no1 [Compound 9A, 3-(2-phenylethyl)-5-[(2S)-1-isobutylsulfonylpyrrolidin-2-yl]-1,2,4-oxadiazole]
10 to 50		O=C(NCc1ccccc1)N1[C@@H]2CC[C@@H](C2)[C@H]1c1nnc(Cc2c[nH]c3ccccc23)[nH]1 [Compound 24F, (1R,3S,4S)-3-(5-((1H-indol-3-yl)methyl)-4H-1,2,4-triazol-3-yl)-N-benzyl-2-azabicyclo[2.2.1]heptane-2-carboxamide]

From patent US20240327392A1, “HETEROCYCLOALKYL-SUBSTITUTED POLYHETEROAZOLE DERIVATIVES AS MEDICAMENTS FOR TREATING AND/OR PREVENTING RS VIRUS INFECTIONS” (ALBIUS SCIENCES ALPHA PRIVATE LIMITED, priority 2021, published 2024)
